{"source": "paper PMC12785453", "about": "“Oral Fluid Concentrations and Pharmacological Effects of Clephedrone and Methylone in Humans” (International Journal of Molecular Sciences, 2025)", "key": {"healthy volunteers": {"tested_on": "healthy volunteers", "assay": "Subjective effects, ARCI short form, clephedrone study", "type": "in vivo, humans", "settings": "100 or 150 mg oral, n=8", "from_the_text": "The study evaluating the acute effects of clephedrone was designed as a non-controlled, prospective, observational, and naturalistic study. The procedures and evaluations included in this study have been described in previous studies evaluating other synthetic cathinones (mephedrone, methylone, alpha-PVP, NEP, HEXEN), phenethylamines (2C-B and 2C-E), or synthetic cannabinoids (JWH-122, JWH-210, UR-144).\nThis study consisted of one experimental session in which participants (N = 8; 6 women, 2 men) selected their oral dose of clephedrone based on their drug use experience and preferences. According to their dose selection, 3 women and 1 man ingested 100 mg of clephedrone, while the remaining 3 women and 1 man opted for a higher dose of 150 mg. […] Participants were recruited by word of mouth by the harm reduction organization Energy Control in Barcelona (Associació Benestar i Desenvolupament, ABD).\nSubjective effects were evaluated with visual analog scales (VAS), the short form of the Addiction Research Center Inventory (ARCI), and the Evaluation of Subjective Effects of Substances with Abuse Potential questionnaire (VESSPA-SSE). In addition, the Sensitivity to Drug Reinforcement Questionnaire (SDRQ) and a pharmacological identification class questionnaire were used in the controlled study administering methylone.\nThe validated ARCI 49-item short form was used to evaluate and discriminate the subjective following five subscales that correspond to different classes of drugs of abuse: pentobarbital-chlorpromazine-alcohol group (PCAG) is susceptible to sedative effects, morphine-benzedrine group (MBG) is susceptible to euphoric effects, lysergic acid diethylamide (LSD) is susceptible to dysphoria and somatic symptoms, benzedrine (BG) is susceptible to intellectual efficiency and energy, and amphetamine (A) is susceptible to amphetamine-like effects.\nParticipants included in the naturalistic clephedrone study completed VAS at baseline, 0.50, 1, 1.5, 2, 3, 4, and 5 h, and ARCI and VESSPA at baseline, 1, 2, 3, 4, and 5 h after self-administering clephedrone. In the controlled study, VAS was performed at baseline and 0.25, 0.50, 0.75, 1, 1.5, 2, 3, 4, 6, 8, 10, and 24 h, and ARCI and VESSPA at baseline and 1, 2, 3, 4, 6, 8, and 10 h after administering methylone. Participants completed SDRQ and VAS sexual desire and arousal at baseline, 1 and 10 h, and the pharmacological class identification questionnaire at 8 h.\nFor statistical analysis, values of physiological (SBP, DBP, HR, and T) and subjective effects (VAS, ARCI, and VESSPA-SSE) were baseline–adjusted. Maximum effects (Emax) and the time needed to reach maximum effects (Tmax) were determined, and the area under the curve up to 5 h (AUC0–5h) for clephedrone and up to 6 h (AUC0–6h) for methylone was calculated using the trapezoidal rule. Emax and AUC values are presented as mean ± standard deviation, whereas Tmax is presented in median (range).\nTo find possible significant changes through the time course compared to baseline, a Dunnett multiple comparison test was carried out to compare each time point with baseline in both drug conditions. For clephedrone the comparisons were 0–0.5 h, 0–1 h, 0–1.5 h, 0–2 h, 0–3 h, 0–4 h and 0–5 h, and for methylone this analysis included 0–0.25 h, 0–0.5 h, 0–0.75 h, 0–1 h, 0–1.5 h, 0–2 h, 0–3 h, 0–4 h and 0–6 h. Given their different study designs, no comparative analysis between the time courses of both synthetic cathinones was conducted."}, "[1]": {"assay": "Oral fluid concentrations of methylone (LC-MS/MS)", "type": "in vivo, humans", "settings": "150 or 200 mg oral", "description": "Methylone pharmacology was evaluated in a study designed as a randomized, double-blind, placebo-controlled, crossover clinical trial. Four pilot studies were conducted administering methylone at oral doses of 50 (n = 3), 100 (n = 6), 150 (n = 5), and 200 mg (n = 7). Participants attended 3 experimental sessions separated by a one-week wash-out period and received two doses of methylone (one dose per experimental session) compared to placebo, except in the last pilot study in which participants received one dose of methylone, compared to MDMA and placebo. However, in this manuscript, only the results corresponding to the highest methylone doses (n = 12; 150 and 200 mg; mean dose = 179.2 mg) are presented, to enable comparison with clephedrone self-administration. Participants were recruited by word of mouth in the volunteer database of the clinical pharmacology unit.\nIn both studies, oral fluid samples for the quantification of clephedrone and methylone concentration were collected using Salivette standard tubes. For clephedrone, oral fluid samples were collected at baseline, 0.50, 1, 1.5, 2, 3, 4, and 5 h, whereas for methylone, they were collected at baseline, 0.25, 0.50, 0.75, 1, 1.5, 2, 3, 4, 6, 8, and 10 h. After collection, all samples were centrifuged and stored frozen at −20 °C until analysis. Clephedrone oral fluid concentrations were determined using a previously validated gas chromatography coupled to mass spectrometry systems (GC-MS/MS). Methylone was quantified via liquid chromatography–tandem mass spectrometry (LC–MS/MS).\nFor oral fluid concentrations of clephedrone and methylone, only a descriptive analysis was performed to obtain the main pharmacokinetics data, including the maximum concentration (Cmax), the time required to reach maximum concentrations (Tmax), and AUC up to 5 h (AUC0–5h) for clephedrone and up to 6 h (AUC0–6h) for methylone. These parameters were calculated using the Pharmacokinetic Functions for Microsoft Excel (Joel Usansky, Atul Desai, and Diane Tang-Liu, Department of Pharmacokinetics and Drug Metabolism, Allergan, Irvine, CA, USA). […]"}}, "data": [{"smiles": "CNC(C)C(=O)c1ccc(Cl)cc1", "note": "(stereo not shown) [Clephedrone, 4-chloromethcathinone]", "values": [{"measurement": "ARCI A (amphetamine-like effects) Emax", "setting": "healthy volunteers", "result": "5.88 ± 0.99", "unit": "points"}, {"measurement": "ARCI BG (intellectual efficiency) Emax", "setting": "healthy volunteers", "result": "4.13 ± 0.99", "unit": "points"}, {"measurement": "ARCI LSD (dysphoria) Emax", "setting": "healthy volunteers", "result": "1.25 ± 2.19", "unit": "points"}, {"measurement": "ARCI MBG (euphoria) Emax", "setting": "healthy volunteers", "result": "12.13 ± 2.03", "unit": "points"}, {"measurement": "ARCI PCAG (sedation) Emax", "setting": "healthy volunteers", "result": "0.88 ± 4.19", "unit": "points"}, {"measurement": "ARCI A (amphetamine-like effects) AUC0-5/6 h", "setting": "healthy volunteers; AUC0–5h", "result": "18.75 ± 3.54", "unit": "points·h"}, {"measurement": "ARCI BG (intellectual efficiency) AUC0-5/6 h", "setting": "healthy volunteers; AUC0–5h", "result": "10.56 ± 5.30", "unit": "points·h"}, {"measurement": "ARCI LSD (dysphoria) AUC0-5/6 h", "setting": "healthy volunteers; AUC0–5h", "result": "1.81 ± 4.39", "unit": "points·h"}, {"measurement": "ARCI MBG (euphoria) AUC0-5/6 h", "setting": "healthy volunteers; AUC0–5h", "result": "37.56 ± 11.83", "unit": "points·h"}, {"measurement": "ARCI PCAG (sedation) AUC0-5/6 h", "setting": "healthy volunteers; AUC0–5h", "result": "–3.31 ± 5.44 points·h"}]}, {"smiles": "CNC(C)C(=O)c1ccc2c(c1)OCO2", "note": "(stereo not shown) [Methylone, 3,4-methylenedioxy-N-methylcathinone]", "values": [{"measurement": "Oral fluid concentration at 6 h, times lower than Cmax", "setting": "[1]; 6 h", "result": 11, "unit": "times"}, {"measurement": "Cmax", "setting": "[1]; human, oral fluid, n=12", "result": 17.2, "unit": "µg/mL"}, {"measurement": "AUC(0-t)", "setting": "[1]; human, oral fluid, n=12, read-out: Oral fluid AUC0–6 h", "result": 44.7, "unit": "µg·h/mL"}]}]}
